In US11185539B2 (priority 2017, dated 2021):

What was measured:
[1] = test system: C57BL/6 mice with angiotensin II-induced diastolic heart failure; test: Echocardiography in murine model of angiotensin II-induced cardiac fibrotic disease (two weeks); assay type: in vivo; conditions: i.p. every other day, Bufalin 0.5, Lycorine 4.5, Anisomycin 10, Gitoxigenin 0.01 mg/kg, day 14
Protocol: (§1) Diastolic heart failure (HF) was induced in C57BL/6 mice via implantation of angiotensin II filled minipumps. Male C57BL/6 mice 8-10 weeks old were used in the present invention being based on a C57BL/6N-background (Charles River, Germany).
(§2) For implantation of angiotension II filled minipumps, Angiotensin-II is applied by osmotic minipumps for two weeks (Alzet® [Modell 1001]). The recommended dose amounts for 1.5 or 3.0 mg/kg/per day. The minipumps are filled under sterile conditions with Angiotensin-II or with isotonic saline solution functioning as a control substance. Implantation takes place under intraperitoneal injection anaesthesia. […] Mice are then fixed on a pre-heated operating table and are provided with Bepanthen eye salve against drying out of the conjunctives. The operating field is located in the right caudal third of the back. It is shaved and desinfected with Braunol, afterwards it is coated with a 0.5% Lidocain-solution. After a period of one hour implantation can be started. The skin is cut through vertical to the back line, preferably the length is one centimeter. A pocket from the cutting line to cranial is subcutaneously formed. Herein, the minipumps are injected. Afterwards, the skin is then closed with a 5-0 Prolene string with interrupted sutures. Then, the closed wound is coated again with Braunol. For preventing hypothermia mice wake up in their cages, which are placed up to one-third on a terrarium-warming mat with regulated temperatures of 37°. Surgery amounts for 5 minutes/per animal.
(§3) Next, the natural compounds (Bufalin, Gitoxigenin, Lycorine, and Anisomycin) were injected intraperitoneally every other day during two consecutive weeks starting two days after the operation (see FIG. 6). DMSO was also injected into C57BL/6 mice with induced cardiac remodeling as a control. Cardiac function was assessed echocardiographically and fibrosis-development via collagen staining with picosirius-red in histological sections of the hearts (Example 4).
Diastolic HF was induced in C57BL/6 mice and the natural compounds were injected as indicated in Example 3. Fourteen days after the operation, cardiac function of the mice was assessed echocardiographically (n=9-15 per group) by treating the mice with said compounds (Bufalin: 0.5 mg/kg, Lycorine 4.5 mg/kg, Anisomycin: 10 mg/kg and Gitoxigenin: 0.01 mg/kg). A decrease of the Myocardial Performance Index (MPI) as well as a reduction of the isovolumetric relaxation time (IVRT) and an increase in E to A peak ratio (E/A) (the ratio of the early (E) to late (A) ventricular filling velocities as a marker of the function of the left ventricle of the heart) indicate improvement of both global (MPI) and diastolic (IVRT and E/A) function of the heart (see FIGS. 7 and 9).

primary HCFs = test: Cell death in HCFs, FACS after Annexin-7AAD-staining; assay type: cell-based, human; conditions: Lycorine 5 μM, Bufalin, Gitoxigenin, Anisomycin 1 μM, 24 h
Protocol: HCFs and HL-1 cells were treated with Bufalin, Gitoxigenin, Lycorine and Anisomycin for 24 h with the same concentrations as indicated in Example 1 and proliferation of HCFs and cardiomyocyte cell line HL-1 cells was measured by BrdU-ELISA, DMSO refers as a control (see FIG. 2B, 3B, 4B, 5B). The cell proliferation ELISA is a colorimetric alternative to quantitate cell proliferation based on the measurement of BrdU incorporation during DNA synthesis in proliferating cells. After its incorporation into DNA, BrdU is detected by immunoassay by using antibodies being highly specific for BrdU. First, HCFs and/or HL-1 cells are cultured together with various dilutions of test substances (e.g. mitogens, growth factors, cytokines and test compounds such as Bufalin, Gitoxigenin, Lycorine and Anisomycin as mentioned above etc.) in a 96-well in a final volume of 100 μl/well in a humified atmosphere of 37° C. Afterwards, 10 μl/well BrdU labeling solution is added to the cells being cultured in 100 μl/well (final concentration: 10 μM BrdU). Then, cells were re-incubated for additional 2 to 24 h at 37° C. Next, labeling solution is removed and 200 μl/well FixDenat is added to the cells and incubated for 30 min at 15 to 25° C. Then, 100 μl/well anti-BrdU-POD working solution is added and incubated for approximately 90 min, after FixDenat is removed. Next, antibody conjugate is removed and wells are washed with 200 μl-300 μl/well Washing solution (PBS, 1×). After the washing solution is removed, 100 μl/well Substrate solution is added and it is incubated again until color development is sufficient for photometric detection. Further, HCFs were treated with said compounds (Lycorine: 5 μM, Bufalin: 1 μM, Gitoxigenin: 1 μM and Anisomycin: 1 μM) for 24 h as indicated again and subjected to FACS analysis after Annexin-7AAD-staining (see FIG. 2C, 3C, 4C, 5C). After the treatment with said compounds, annexin-7AAD-staining starts with inducing apoptosis in HCFs by a desired method, known to the person skilled in the art, a negative control (w/o induction and staining) and a positive control (f. ex. 500 μM H2O2 or 3 μM Staurosporin) is also needed. Then, the medium with HCFs is transferred into a falcon, washed with PBS and trypsinized. Everything is centrifuged for 5 min at 300×g and then the supernatant is aspirated. The pellet is re-suspended in 200 μl Annexin Red/7AAD Working Solution (1:20, 5 μl Annexin Red/7AAD+195 μl 1× Assay Buffer) and transferred into an Easy Cap Eppendorf tube. After incubation of 15 min at 37° C., it is centrifuged at room temperature (RT) for 5 min at 300×g. […] Samples are now ready for acquisition on a flow cytometer (blue and red laser).

[2] = test system: C57BL/6 mice with angiotensin II-induced diastolic heart failure; test: Picrosirius-red collagen staining of heart sections, angiotensin II model (two weeks); assay type: in vivo; conditions: i.p. every other day, Bufalin 0.5, Lycorine 4.5, Anisomycin 10, Gitoxigenin 0.01 mg/kg, day 14
Protocol: as §1, §2, §3
Further, fourteen days after the operation, histological sections of the hearts were stained for collagen using picrosirius-red (n=3-5 per group) after treatment with said compounds (Bufalin: 0.5 mg/kg, Lycorine 4.5 mg/kg, Anisomycin: 10 mg/kg and Gitoxigenin: 0.01 mg/kg).

miR-671-5p = miR-671-5p expression in HCFs, qRT-PCR; assay type: cell-based, human; conditions: Lycorine 5 μM, others 1 μM, 24 h, vs DMSO
[3] = test system: primary human pulmonary fibroblasts (HPFs); test: Proliferation of primary human pulmonary fibroblasts, BrdU-ELISA; assay type: cell-based; conditions: 24 h; for proliferation of pulmonary fibroblasts (HPFs): Lycorine 1, 5, 10 μM, Bufalin 0.1, 1, 10 μM
Protocol: Cells of the rat renal fibroblast cell line NRK49F and primary human pulmonary fibroblasts (HPFs) were treated with Lycorine (1 μM, 5 μM and 10 μM) or Bufalin (0.1 μM, 1 μM, 10 μM) for 24 h and proliferation of respective fibroblasts was measured by BrdU-ELISA (see FIG. 39).

Row | SMILES | E to A peak ratio (E/A) [1] | Myocardial Performance Index (MPI) [1] | isovolumetric relaxation time (IVRT) [1] | cell death in primary HCFs (Annexin-7AAD-staining) (primary HCFs) | collagen deposition in heart sections (picrosirius-stained areas) [2] | expression levels of miR-671-5p (normalized to RNU48) (miR-671-5p) | most effective amount (pulmonary fibroblasts) [3] | proliferation of pulmonary fibroblasts (HPFs) [3]
1 | COc1ccc(C[C@H]2NC[C@H](O)[C@H]2OC(C)=O)cc1 [Anisomycin] | increase | decrease | reduction | does not induce cell death | prominent reduction of collagen deposition | decreased | – | –
2 | C[C@]12CC[C@H](O)C[C@H]1CC[C@@H]1[C@@H]2CC[C@]2(C)[C@@H](c3ccc(=O)oc3)CC[C@]12O [Bufalin] | increase | decrease | reduction | does not induce cell death | prominent reduction of collagen deposition | decreased | 10 µM | significantly inhibits
3 | C[C@]12CC[C@H](O)C[C@H]1CC[C@@H]1[C@@H]2CC[C@]2(C)[C@@H](C3=CC(=O)OC3)[C@@H](O)C[C@]12O [Gitoxigenin] | increase | decrease | reduction | does not induce cell death | prominent reduction of collagen deposition | decreased | – | –
4 | O[C@H]1[C@H]2c3cc4c(cc3CN3CCC(=C[C@@H]1O)[C@H]23)OCO4 [Lycorine] | increase | decrease | reduction | does not induce cell death | prominent reduction of collagen deposition | decreased | 10 µM | significantly inhibits proliferation
